Experimental data reported in patent publication US20230074209A1, “METHOD AND DEVICE FOR PROVIDING DRUG RECOMMENDATION” (Cancerfree biotech Ltd., priority 2021, published 2023).

Experiments:
[1] = tested on: patient's CTC-derived organoid cultures; test: Drug sensitivity assay of CTC-derived organoid cultures (CellTiter Glo ATP, relative cell viability); format: cell-based, human; conditions: for relative cell viability: CTC-derived organoid cultures of patient, one week co-culture; for CTC sensitivity profiling: CTCs of patient
Text: In some embodiments, first, a liquid biopsy of the patient is obtained, and CTCs are then isolated from the liquid biopsy, and the CTCs are then expanded to obtain the CTC-derived organoid cultures. The liquid biopsy is, for example, a blood sample, such as a peripheral venous blood sample. In one example, the CTCs were isolated from the liquid biopsy, and the biomimetic cell culture system was then used to expand the CTCs in vitro to form the CTC-derived organoid cultures. In one example, Ficoll-Paque centrifugation was used to isolate peripheral blood mononuclear cells (PBMCs) containing the CTCs from the blood sample. The cells were then seeded onto a substrate of binary colloidal crystal (BCC) containing silica and polymethyl methacrylate (PMMA), and cultured in the biomimetic cell culture system for three weeks, with replacement of culture medium every four days. The expansion of the organoid cultures could be monitored by optical microscopy, and the presence of the CTCs could be confirmed by EpCAM and CD45 immunofluorescence staining. The CTC-derived organoid cultures were positive for EpCAM and negative for CD45 in the immunofluorescence staining
In one example, the CTC-derived organoid cultures were resuspended in a culture medium, and then divided into aliquots and loaded to 96-well plates for drug sensitivity assays. The aliquots were divided into a control group (not reacted with a drug) and drug test groups (respectively reacted with different drugs). For advanced pancreatic ductal adenocarcinoma, gemcitabine, 5-fluorouracil (5-FU), erlotinib, irinotecan, olaparib, oxaliplatin, paclitaxel, palbociclib and trametinib were selected as candidate drugs and tested against the CTC-derived organoid cultures at concentrations according to the clinical pharmacokinetics of each of the drugs, in order to mimic the effect of a clinical dose in patients. Different drug treatments were respectively added to each of the wells in the 96-well plates, after which cultures were continued to co-culture for one week. At the end of the assay period, viable cell counts were measured using cytosolic adenosine triphosphate (ATP) abundance (CellTiter Glo, Promega, Madison Wis., USA) via a luminometer (Promega). The relative cell viabilities of the CTC-derived organoid cultures respectively corresponding to the 9 candidate drugs were calculated by the formula: relative cell viability=(viable cell counts of the drug test group/viable cell counts of the control group)×100%. Lower cell viability following application of test treatments was indicative of greater drug sensitivity and better anti-tumor effect. However, the present disclosure is not limited to the above example, and other test methods or calculation methods can be used to obtain the relative cell viabilities.

pancreatic cancer = test: Clinical course of individual pancreatic cancer patients under treatment; format: in vivo, human; conditions: patient
Protocol: In one example, clinical response to treatment in patients was evaluated using Response Evaluation Criteria in Solid Tumors (RECIST) version 1.1 criteria.

[2] = locally advanced pancreatic cancer
[3] = August 2019, 12 cycles of chemotherapy plus radiotherapy 44 Gy/20 Fx

O=C(c1cc(Cc2n[nH]c(=O)c3ccccc23)ccc1F)N1CCN(C(=O)C2CC2)CC1 [olaparib]
relative cell viability ([1]; metastatic pancreatic cancer): 16.7%

CCc1c2c(nc3ccc(OC(=O)N4CCC(N5CCCCC5)CC4)cc13)-c1cc3c(c(=O)n1C2)COC(=O)[C@]3(O)CC [irinotecan]
CTC sensitivity profiling [1, 2]: resistance

O=c1[nH]cc(F)c(=O)[nH]1 [5-FU, 5-fluorouracil]
CTC sensitivity profiling [1, 2]: resistance

C#Cc1cccc(Nc2ncnc3cc(OCCOC)c(OCCOC)cc23)c1 [erlotinib]
relative cell viability ([1]; locally advanced pancreatic cancer, clinical-PK concentration): 27.8%

CC(=O)O[C@H]1C(=O)[C@@]2(C)[C@H]([C@H](OC(=O)c3ccccc3)[C@]3(O)C[C@H](OC(=O)[C@H](O)[C@@H](NC(=O)c4ccccc4)c4ccccc4)C(C)=C1C3(C)C)[C@]1(OC(C)=O)CO[C@@H]1C[C@@H]2O [paclitaxel]
CTC sensitivity profiling [1, 2]: resistance

FOLFIRINOX
abdominal CT scan response, liver metastases (pancreatic cancer; [3]): partial response (PR) | abdominal CT scan response, pancreatic mass (pancreatic cancer; [3]): stable disease (SD) | follow-up CT scan response, pancreatic tumor (pancreatic cancer; November 2019, with liver, bone and peritoneal seeding): progressive disease (PD)

O=C1[O][Pt]2([NH][C@@H]3CCCC[C@H]3[NH]2)[O]C1=O [oxaliplatin]
CTC sensitivity profiling [1, 2]: resistance
